Eleven molecules from patent US8241862B2, “Perinucleolar compartment as a cancer marker” (Northwestern University, priority 2002, dated 2012) can be followed below.

The test concerns HeLa cells. In words: Effect of chemotherapeutic drugs on PNC prevalence in cultured HeLa cells. It is filed as cell-based, human. The method, then: Cultured HeLa cells, whose PNC prevalence is above 95%, were treated with various chemotherapeutic drugs.

SMILES strings stand for the structures. *1 amine or outer side, *2 acyl side, *3 side chain or, on linkers, in order; H or OH if unused. Where a SMILES comes first, the peptide text is derived from it. Bridges are numbered along the chain shown (N, C = ends). Roman numbers before positions name the chains, in order. [ ]: non-standard residue; d: D form. Actinocin(9to1) = Cc1c2oc3c(C)ccc(C(=O)[*:1])c3nc-2c(C(=O)[*:2])c(N)c1=O; NMeV = CN[C@H](C(=O)O)C(C)C; Sar = CNCC(=O)O

Regarding `O=c1[nH]cc(F)c(=O)[nH]1` [5′-fluorouracil], the “Effect on PNC” value (1 to 5 μg/ml, 16 hours) is listed as “No effect on PNC structure”.
Consider `COc1cc(NS(C)(=O)=O)ccc1Nc1c2ccccc2nc2ccccc12` [AMSA], for which, under “5 to 40 μM, 16 hours”, the “Effect on PNC” value is on record as “No effect on PNC structure”.
`Cc1c2oc3c(C)ccc(C(=O)N[C@@H]4C(=O)N[C@H](C(C)C)C(=O)N5CCC[C@H]5C(=O)N(C)CC(=O)N(C)[C@@H](C(C)C)C(=O)O[C@@H]4C)c3nc-2c(C(=O)N[C@@H]2C(=O)N[C@H](C(C)C)C(=O)N3CCC[C@H]3C(=O)N(C)CC(=O)N(C)[C@@H](C(C)C)C(=O)O[C@@H]2C)c(N)c1=O` [Actinomycin D] (I: T[dV]P[Sar][NMeV] / II: T[dV]P[Sar][NMeV]; ester I:1-I:C, II:1-II:C; linker I:N-II:N via Actinocin(9to1)): the “Effect on PNC (cell negative for PNC)” value (0.04 μg/ml, 2 hours) was found to be 100% cell negative for PNC.
For the molecule `COc1cccc2c1C(=O)c1c(O)c3c(c(O)c1C2=O)C[C@@](O)(C(=O)CO)C[C@@H]3O[C@H]1C[C@H](N)[C@H](O)[C@H](C)O1` [Adriamycin], the “Effect on PNC” value (5 to 40 μM, 16 hours) is listed as “No effect on PNC structure”.
Turning to `CC[C@@]1(O)C(=O)OCc2c1cc1n(c2=O)Cc2cc3ccccc3nc2-1` [Campothecin], the “Effect on PNC (cell negative for PNC)” value (1.25 to 2.5 μg/ml, 1 hour) came out at 100% cell negative for PNC.
On to `N.N.[Cl][Pt][Cl]` [Cisplatin], for which the “Effect on PNC (cell negative for PNC)” value (0.5 μg/ml, 5 hours) worked out at 95% cell negative for PNC.
Take `Nc1ccn([C@@H]2O[C@H](CO)[C@@H](O)[C@@H]2O)c(=O)n1` [Cytosine Arabinoside]: the “Effect on PNC” value (10 to 40 μg/ml, 16 hours) is recorded as “No effect on PNC structure”.
Take `NC(=O)NO` [Hydroxyurea]: the “Effect on PNC” value (0.5 to 1.5 μM, 16 hours) is listed as “No effect on PNC structure”.
In the case of `CN(Cc1cnc2nc(N)nc(N)c2n1)c1ccc(C(=O)N[C@@H](CCC(=O)O)C(=O)O)cc1` [Methotrexate], the “Effect on PNC (cells negative for PNC)” value runs as follows: (0.5 μg/ml, 16 hours) 30% cells negative for PNC; (1.0 μg/ml, 16 hours) 60% cells negative for PNC; (2.5 μg/ml, 16 hours) 80% cells negative for PNC. In addition, under “0.5 to 2.5 μg/ml, 16 hours”, the “Response of PNC prevalence to dose” value is “dose-dependent”.
As for `CC(=O)O[C@H]1C(=O)[C@@]2(C)[C@H]([C@H](OC(=O)c3ccccc3)[C@]3(O)C[C@H](OC(=O)[C@H](O)[C@@H](NC(=O)c4ccccc4)c4ccccc4)C(C)=C1C3(C)C)[C@]1(OC(C)=O)CO[C@@H]1C[C@@H]2O` [Paclitaxel], under “5 to 40 μM, 16 hours”, the “Effect on PNC” value is listed as “No effect on PNC structure”.
As for `CC[C@]1(O)C[C@H]2CN(CCc3c([nH]c4ccccc34)[C@@](C(=O)OC)(c3cc4c(cc3OC)N(C=O)[C@H]3[C@@](O)(C(=O)OC)[C@H](OC(C)=O)[C@]5(CC)C=CCN6CC[C@]43[C@@H]65)C2)C1` [Vincristine], under “5 to 40 μM, 16 hours”, the “Effect on PNC” value is on record as “No effect on PNC structure”.
